{"source": "the kinase profiling compilation of Christmann-Franck et al. (2016)", "assay_in_all_cases": "KINOMEscan competition binding", "details_in_all_cases": "compound 10.0 µM", "key": {"RPS6KA4 KD1 (human)": {"biological_target": "RPS6KA4 KD1 (human) (UniProt O75676)", "sequence (O75676 whole entry, looked up)": "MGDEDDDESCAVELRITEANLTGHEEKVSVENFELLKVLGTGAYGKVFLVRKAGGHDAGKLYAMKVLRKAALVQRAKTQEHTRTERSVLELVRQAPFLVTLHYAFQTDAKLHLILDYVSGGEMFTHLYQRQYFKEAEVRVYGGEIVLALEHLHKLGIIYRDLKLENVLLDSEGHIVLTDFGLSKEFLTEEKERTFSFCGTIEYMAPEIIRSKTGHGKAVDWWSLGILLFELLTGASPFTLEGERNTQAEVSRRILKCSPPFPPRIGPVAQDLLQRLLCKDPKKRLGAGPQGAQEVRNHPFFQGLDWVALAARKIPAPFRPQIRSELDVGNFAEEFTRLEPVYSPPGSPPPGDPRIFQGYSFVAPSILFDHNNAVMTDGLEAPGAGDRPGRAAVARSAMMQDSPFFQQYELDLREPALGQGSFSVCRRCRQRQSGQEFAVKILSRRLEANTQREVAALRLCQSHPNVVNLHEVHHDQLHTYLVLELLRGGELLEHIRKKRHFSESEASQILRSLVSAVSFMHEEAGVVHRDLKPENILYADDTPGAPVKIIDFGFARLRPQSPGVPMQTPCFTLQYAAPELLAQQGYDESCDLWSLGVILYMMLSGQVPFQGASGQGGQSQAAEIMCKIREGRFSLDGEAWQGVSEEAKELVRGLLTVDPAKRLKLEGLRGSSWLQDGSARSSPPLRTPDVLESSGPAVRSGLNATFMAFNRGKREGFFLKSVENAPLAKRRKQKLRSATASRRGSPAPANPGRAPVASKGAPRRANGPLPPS"}, "STK17B (human)": {"biological_target": "STK17B (human) (UniProt O94768)"}, "RAF1 (human)": {"biological_target": "RAF1 (human) (UniProt P04049)"}, "NEK7 (human)": {"biological_target": "NEK7 (human) (UniProt Q8TDX7)"}, "ACVR2B (human)": {"biological_target": "ACVR2B (human) (UniProt Q13705)"}, "EPHA6 (human)": {"biological_target": "EPHA6 (human) (UniProt Q9UF33)"}, "HIPK2 (human)": {"biological_target": "HIPK2 (human) (UniProt Q9H2X6)"}, "PIK3CB (human)": {"biological_target": "PIK3CB (human) (UniProt P42338)"}, "TXK (human)": {"biological_target": "TXK (human) (UniProt P42681)"}, "MAP2K6 (human)": {"biological_target": "MAP2K6 (human) (UniProt P52564)"}, "FER (human)": {"biological_target": "FER (human) (UniProt P16591)", "sequence (P16591 whole entry, looked up)": "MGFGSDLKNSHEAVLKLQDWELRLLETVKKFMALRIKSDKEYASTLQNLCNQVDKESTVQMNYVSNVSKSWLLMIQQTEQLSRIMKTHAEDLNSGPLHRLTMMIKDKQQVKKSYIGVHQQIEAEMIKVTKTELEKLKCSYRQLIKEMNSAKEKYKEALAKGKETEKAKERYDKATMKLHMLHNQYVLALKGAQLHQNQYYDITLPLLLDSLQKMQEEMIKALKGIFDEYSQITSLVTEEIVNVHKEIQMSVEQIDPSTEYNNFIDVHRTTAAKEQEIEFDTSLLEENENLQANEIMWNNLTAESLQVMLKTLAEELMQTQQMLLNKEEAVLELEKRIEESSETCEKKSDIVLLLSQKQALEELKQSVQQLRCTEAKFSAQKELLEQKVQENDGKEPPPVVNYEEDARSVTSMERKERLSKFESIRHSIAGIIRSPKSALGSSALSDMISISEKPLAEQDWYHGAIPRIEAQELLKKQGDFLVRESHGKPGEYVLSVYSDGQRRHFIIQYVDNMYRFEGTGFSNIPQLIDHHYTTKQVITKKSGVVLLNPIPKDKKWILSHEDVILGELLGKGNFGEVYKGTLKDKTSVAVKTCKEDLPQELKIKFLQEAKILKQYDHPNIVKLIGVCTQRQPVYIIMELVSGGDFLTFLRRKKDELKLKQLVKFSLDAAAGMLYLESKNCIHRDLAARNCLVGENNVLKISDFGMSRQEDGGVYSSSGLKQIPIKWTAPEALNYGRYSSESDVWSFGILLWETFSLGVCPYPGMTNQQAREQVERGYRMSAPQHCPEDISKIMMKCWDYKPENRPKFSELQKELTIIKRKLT"}, "ACVR1 (human)": {"biological_target": "ACVR1 (human) (UniProt Q04771)"}, "RIOK2 (human)": {"biological_target": "RIOK2 (human) (UniProt Q9BVS4)"}, "[1]": {"test_system": "PIK3CA (human), P42336 [Q546K]"}, "STK24 (human)": {"biological_target": "STK24 (human) (UniProt Q9Y6E0)", "sequence (Q9Y6E0 whole entry, looked up)": "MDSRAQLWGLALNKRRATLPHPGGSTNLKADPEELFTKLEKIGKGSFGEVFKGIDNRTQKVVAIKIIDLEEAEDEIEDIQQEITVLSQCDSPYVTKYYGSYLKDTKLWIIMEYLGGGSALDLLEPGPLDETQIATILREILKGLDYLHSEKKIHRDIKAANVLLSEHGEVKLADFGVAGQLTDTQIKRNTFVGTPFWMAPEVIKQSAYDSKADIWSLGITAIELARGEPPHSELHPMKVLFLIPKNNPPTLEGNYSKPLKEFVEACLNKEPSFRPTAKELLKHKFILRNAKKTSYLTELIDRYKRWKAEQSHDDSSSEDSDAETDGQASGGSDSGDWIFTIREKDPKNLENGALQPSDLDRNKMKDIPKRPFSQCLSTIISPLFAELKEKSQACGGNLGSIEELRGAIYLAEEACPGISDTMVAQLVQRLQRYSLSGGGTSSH"}, "MAP3K1 (human)": {"biological_target": "MAP3K1 (human) (UniProt Q13233)"}, "FGFR1 (human)": {"biological_target": "FGFR1 (human) (UniProt P11362)"}, "DMPK (human)": {"biological_target": "DMPK (human) (UniProt Q09013)"}, "PAK6 (human)": {"biological_target": "PAK6 (human) (UniProt Q9NQU5)"}, "MYLK3 (human)": {"biological_target": "MYLK3 (human) (UniProt Q32MK0)"}, "PLK4 (human)": {"biological_target": "PLK4 (human) (UniProt O00444)"}, "MAP4K1 (human)": {"biological_target": "MAP4K1 (human) (UniProt Q92918)"}, "[2]": {"test_system": "PIK3CA (human), P42336 [E545A]"}, "PIK3C2B (human)": {"biological_target": "PIK3C2B (human) (UniProt O00750)"}, "STK4 (human)": {"biological_target": "STK4 (human) (UniProt Q13043)"}, "SIK3 (human)": {"biological_target": "SIK3 (human) (UniProt Q9Y2K2)"}, "CDK8 (human)": {"biological_target": "CDK8 (human) (UniProt P49336)"}, "DCLK1 (human)": {"biological_target": "DCLK1 (human) (UniProt O15075)"}, "TYRO3 (human)": {"biological_target": "TYRO3 (human) (UniProt Q06418)", "sequence (Q06418 whole entry, looked up)": "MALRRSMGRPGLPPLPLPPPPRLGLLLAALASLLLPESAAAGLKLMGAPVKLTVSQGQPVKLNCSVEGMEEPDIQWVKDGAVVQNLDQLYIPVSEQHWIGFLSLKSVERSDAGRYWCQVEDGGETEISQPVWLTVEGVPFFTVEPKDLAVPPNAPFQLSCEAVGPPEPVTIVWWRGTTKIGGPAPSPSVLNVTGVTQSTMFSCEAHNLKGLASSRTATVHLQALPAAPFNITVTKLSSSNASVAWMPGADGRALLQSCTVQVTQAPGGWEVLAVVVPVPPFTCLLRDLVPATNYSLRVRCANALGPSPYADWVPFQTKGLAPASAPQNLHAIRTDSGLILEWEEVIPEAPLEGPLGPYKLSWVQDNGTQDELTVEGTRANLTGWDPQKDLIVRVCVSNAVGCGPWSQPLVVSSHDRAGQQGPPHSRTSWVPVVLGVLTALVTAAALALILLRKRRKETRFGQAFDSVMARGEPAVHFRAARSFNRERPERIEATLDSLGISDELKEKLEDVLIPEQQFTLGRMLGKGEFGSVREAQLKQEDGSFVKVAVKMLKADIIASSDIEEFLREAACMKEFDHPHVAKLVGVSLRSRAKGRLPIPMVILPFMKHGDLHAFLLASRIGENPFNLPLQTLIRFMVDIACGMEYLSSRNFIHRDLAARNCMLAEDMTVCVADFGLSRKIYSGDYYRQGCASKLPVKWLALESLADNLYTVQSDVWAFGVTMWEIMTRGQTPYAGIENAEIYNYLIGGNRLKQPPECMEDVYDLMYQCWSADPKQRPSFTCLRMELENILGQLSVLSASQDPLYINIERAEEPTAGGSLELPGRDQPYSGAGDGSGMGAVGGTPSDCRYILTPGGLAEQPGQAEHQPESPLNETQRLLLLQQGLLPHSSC"}, "IGF1R (human)": {"biological_target": "IGF1R (human) (UniProt P08069)", "sequence (P08069 whole entry, looked up)": "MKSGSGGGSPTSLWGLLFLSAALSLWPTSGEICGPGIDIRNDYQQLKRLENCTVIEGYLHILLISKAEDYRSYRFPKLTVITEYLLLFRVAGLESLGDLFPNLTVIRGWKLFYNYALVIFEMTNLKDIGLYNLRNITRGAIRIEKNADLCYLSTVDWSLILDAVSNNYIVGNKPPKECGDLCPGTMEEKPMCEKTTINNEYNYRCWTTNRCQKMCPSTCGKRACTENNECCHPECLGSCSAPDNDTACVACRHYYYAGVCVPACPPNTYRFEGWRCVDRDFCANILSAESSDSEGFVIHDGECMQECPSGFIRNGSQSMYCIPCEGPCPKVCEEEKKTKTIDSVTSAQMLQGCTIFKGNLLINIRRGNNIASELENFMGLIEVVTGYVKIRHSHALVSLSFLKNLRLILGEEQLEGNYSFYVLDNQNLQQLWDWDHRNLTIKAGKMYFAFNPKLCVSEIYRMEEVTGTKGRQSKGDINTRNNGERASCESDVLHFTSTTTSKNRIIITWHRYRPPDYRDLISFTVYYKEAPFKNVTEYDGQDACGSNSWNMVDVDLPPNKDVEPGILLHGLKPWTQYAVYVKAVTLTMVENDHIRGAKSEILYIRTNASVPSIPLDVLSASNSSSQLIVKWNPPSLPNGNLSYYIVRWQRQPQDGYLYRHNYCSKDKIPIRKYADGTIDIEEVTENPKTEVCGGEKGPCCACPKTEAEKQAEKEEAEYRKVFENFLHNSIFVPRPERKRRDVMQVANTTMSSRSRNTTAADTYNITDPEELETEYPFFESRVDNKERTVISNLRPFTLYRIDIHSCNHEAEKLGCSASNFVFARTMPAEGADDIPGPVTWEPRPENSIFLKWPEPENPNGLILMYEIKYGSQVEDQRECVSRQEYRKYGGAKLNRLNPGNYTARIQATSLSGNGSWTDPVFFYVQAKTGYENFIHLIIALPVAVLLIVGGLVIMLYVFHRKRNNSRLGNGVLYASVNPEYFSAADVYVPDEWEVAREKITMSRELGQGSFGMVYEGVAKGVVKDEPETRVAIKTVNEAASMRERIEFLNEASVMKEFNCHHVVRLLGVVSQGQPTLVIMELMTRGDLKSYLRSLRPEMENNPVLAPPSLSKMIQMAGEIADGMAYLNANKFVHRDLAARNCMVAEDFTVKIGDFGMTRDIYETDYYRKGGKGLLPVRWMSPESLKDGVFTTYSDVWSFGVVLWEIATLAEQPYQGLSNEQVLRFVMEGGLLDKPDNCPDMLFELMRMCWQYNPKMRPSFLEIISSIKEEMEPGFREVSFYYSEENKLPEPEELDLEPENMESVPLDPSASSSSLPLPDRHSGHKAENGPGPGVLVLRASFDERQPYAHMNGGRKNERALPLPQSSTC"}, "RIPK2 (human)": {"biological_target": "RIPK2 (human) (UniProt O43353)"}, "CASK (human)": {"biological_target": "CASK (human) (UniProt O14936)"}, "EPHA4 (human)": {"biological_target": "EPHA4 (human) (UniProt P54764)"}, "PAK4 (human)": {"biological_target": "PAK4 (human) (UniProt O96013)", "sequence (O96013 whole entry, looked up)": "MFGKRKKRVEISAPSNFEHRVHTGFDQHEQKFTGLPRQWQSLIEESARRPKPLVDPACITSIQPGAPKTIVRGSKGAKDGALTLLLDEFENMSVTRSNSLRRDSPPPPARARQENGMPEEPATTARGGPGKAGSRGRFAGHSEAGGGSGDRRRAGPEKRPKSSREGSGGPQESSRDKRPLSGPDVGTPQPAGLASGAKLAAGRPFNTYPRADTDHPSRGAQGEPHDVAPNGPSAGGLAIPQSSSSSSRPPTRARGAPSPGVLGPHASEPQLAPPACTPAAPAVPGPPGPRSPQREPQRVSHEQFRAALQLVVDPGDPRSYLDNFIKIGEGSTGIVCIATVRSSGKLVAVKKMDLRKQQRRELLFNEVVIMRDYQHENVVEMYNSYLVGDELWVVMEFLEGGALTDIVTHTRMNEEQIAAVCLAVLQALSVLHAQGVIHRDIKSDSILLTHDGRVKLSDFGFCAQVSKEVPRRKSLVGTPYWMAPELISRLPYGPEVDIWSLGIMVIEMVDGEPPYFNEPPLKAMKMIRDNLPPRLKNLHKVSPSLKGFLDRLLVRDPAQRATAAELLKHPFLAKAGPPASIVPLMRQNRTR"}, "MLTK (human)": {"biological_target": "MLTK (human) (UniProt Q9NYL2)"}, "[3]": {"test_system": "KIT (human), P10721 [D816V]"}}, "data": [{"smiles": "CCOc1cc2ncc(C#N)c(Nc3ccc(OCc4ccccn4)c(Cl)c3)c2cc1NC(=O)/C=C/CN(C)C", "values": [{"measurement": "kinase still bound, per cent of control", "setting": "RPS6KA4 KD1 (human)", "value": 100, "unit": "%"}, {"measurement": "kinase still bound, per cent of control", "setting": "STK17B (human)", "value": 46, "unit": "%"}, {"measurement": "kinase still bound, per cent of control", "setting": "RAF1 (human)", "value": 100, "unit": "%"}, {"measurement": "kinase still bound, per cent of control", "setting": "NEK7 (human)", "value": 100, "unit": "%"}, {"measurement": "kinase still bound, per cent of control", "setting": "ACVR2B (human)", "value": 100, "unit": "%"}, {"measurement": "kinase still bound, per cent of control", "setting": "EPHA6 (human)", "value": 99, "unit": "%"}, {"measurement": "kinase still bound, per cent of control", "setting": "HIPK2 (human)", "value": 65, "unit": "%"}, {"measurement": "kinase still bound, per cent of control", "setting": "PIK3CB (human)", "value": 100, "unit": "%"}, {"measurement": "kinase still bound, per cent of control", "setting": "TXK (human)", "value": 86, "unit": "%"}, {"measurement": "kinase still bound, per cent of control", "setting": "MAP2K6 (human)", "value": 100, "unit": "%"}, {"measurement": "kinase still bound, per cent of control", "setting": "FER (human)", "value": 37, "unit": "%"}, {"measurement": "kinase still bound, per cent of control", "setting": "ACVR1 (human)", "value": 100, "unit": "%"}, {"measurement": "kinase still bound, per cent of control", "setting": "RIOK2 (human)", "value": 53, "unit": "%"}, {"measurement": "kinase still bound, per cent of control", "setting": "[1]", "value": 100, "unit": "%"}, {"measurement": "kinase still bound, per cent of control", "setting": "STK24 (human)", "value": 0.35, "unit": "%"}, {"measurement": "kinase still bound, per cent of control", "setting": "MAP3K1 (human)", "value": 96, "unit": "%"}, {"measurement": "kinase still bound, per cent of control", "setting": "FGFR1 (human)", "value": 100, "unit": "%"}, {"measurement": "kinase still bound, per cent of control", "setting": "DMPK (human)", "value": 98, "unit": "%"}, {"measurement": "kinase still bound, per cent of control", "setting": "PAK6 (human)", "value": 74, "unit": "%"}, {"measurement": "kinase still bound, per cent of control", "setting": "MYLK3 (human)", "value": 86, "unit": "%"}, {"measurement": "kinase still bound, per cent of control", "setting": "PLK4 (human)", "value": 82, "unit": "%"}, {"measurement": "kinase still bound, per cent of control", "setting": "MAP4K1 (human)", "value": 45, "unit": "%"}, {"measurement": "kinase still bound, per cent of control", "setting": "[2]", "value": 100, "unit": "%"}, {"measurement": "kinase still bound, per cent of control", "setting": "PIK3C2B (human)", "value": 100, "unit": "%"}, {"measurement": "kinase still bound, per cent of control", "setting": "STK4 (human)", "value": 17, "unit": "%"}, {"measurement": "kinase still bound, per cent of control", "setting": "SIK3 (human)", "value": 73, "unit": "%"}, {"measurement": "kinase still bound, per cent of control", "setting": "CDK8 (human)", "value": 100, "unit": "%"}, {"measurement": "kinase still bound, per cent of control", "setting": "DCLK1 (human)", "value": 100, "unit": "%"}, {"measurement": "kinase still bound, per cent of control", "setting": "TYRO3 (human)", "value": 100, "unit": "%"}, {"measurement": "kinase still bound, per cent of control", "setting": "IGF1R (human)", "value": 100, "unit": "%"}, {"measurement": "kinase still bound, per cent of control", "setting": "RIPK2 (human)", "value": 98, "unit": "%"}, {"measurement": "kinase still bound, per cent of control", "setting": "CASK (human)", "value": 100, "unit": "%"}, {"measurement": "kinase still bound, per cent of control", "setting": "EPHA4 (human)", "value": 96, "unit": "%"}, {"measurement": "kinase still bound, per cent of control", "setting": "PAK4 (human)", "value": 93, "unit": "%"}, {"measurement": "kinase still bound, per cent of control", "setting": "MLTK (human)", "value": 70, "unit": "%"}, {"measurement": "kinase still bound, per cent of control", "setting": "[3]", "value": 70, "unit": "%"}]}]}
